From ChEMBL document CHEMBL5620357, “Synthesis and anti-inflammatory activity evaluation of NO-releasing furoxan/1,2,4-triazole hybrid derivatives” (Eur J Med Chem, 2023)
Activity calls are given as the source filed them. No cut-off for these calls is given here.

Experiments:
[1] = Cytotoxicity against mouse RAW264.7 cells assessed as cell viability at 50 uM measured after 24 hrs by MTT assay; assay type: toxicity, cell-based; conditions: read-out: Activity
[2] = Cytotoxicity against mouse RAW264.7 cells assessed as maximal safe dose measured after 24 hrs by MTT assay; assay type: toxicity, cell-based; conditions: read-out: MTD
RAW264.7 = assay: cells; conditions: Mus musculus, RAW264.7, 24 h
Description: Anti-inflammatory activity against mouse RAW264.7 cells assessed as inhibition of LPS-induced NO production measured after 24 hrs incubation by Griess analysis

[3] = Gastric ulcerogenic activity in mouse assessed as mucosal erosion and inflammatory cellular infiltration at 2.5 to 10 mg/kg, po by hematoxylin and eosin staining based assay; assay type: toxicity, organism-based; conditions: in vivo, dose 2.5-10 mg/kg
Mus musculus [4] = assay: Anti-inflammatory activity against carrageenan-induced paw edema in ICR mouse model assessed as reduction in IL-6 level in serum at 10 mg/kg, po measured after 5 hrs by ELISA relative to control; assay type: functional
Mus musculus [5] = assay: Anti-inflammatory activity against carrageenan-induced paw edema in ICR mouse model assessed as reduction in TNF-alpha level in serum at 10 mg/kg, po measured after 5 hrs by ELISA relative to control; assay type: functional
Mus musculus [6] = assay: Anti-inflammatory activity against carrageenan-induced hind paw edema mouse model assessed as reduction in cellular infiltration in connective tissue at 10 mg/kg, po; assay type: functional, organism-based
Mus musculus [7] = assay: Anti-inflammatory activity against carrageenan-induced hind paw edema mouse model assessed as decrease in COX-2 expression in connective tissue at 10 mg/kg, po; assay type: functional, organism-based

SMILES | viability at 24 h, 50 µM [1] [%] | MNTC at 24 h [2] [µg/mL] | IC50 (RAW264.7) [µM] | further results
O=C(OCc1c(-c2ccccc2)no[n+]1[O-])c1nc(CCl)n(-c2ccc(F)cc2)n1 | > 95 | ~20 |  | 
COc1ccc(-n2nc(C(=O)OCc3c(-c4ccccc4)no[n+]3[O-])nc2CCl)cc1 | > 95 | ~20 |  | 
[O-][n+]1ccno1 |  |  | 50 | 
O=C(OCc1c(-c2ccccc2)no[n+]1[O-])c1nc(CCl)n(-c2cccc(F)c2)n1 | > 95 | ~20 |  | 
O=C(OCc1c(-c2ccccc2)no[n+]1[O-])c1nc(CCl)n(-c2ccccc2F)n1 | > 95 | ~20 | 14.6 | 
N#Cc1ccc(-n2nc(C(=O)OCc3c(-c4ccccc4)no[n+]3[O-])nc2CCl)cc1 | > 95 | ~20 |  | 
Cc1ccc(-n2nc(C(=O)OCc3c(-c4ccccc4)no[n+]3[O-])nc2CCl)cc1 | > 95 | ~20 |  | 
O=C(OCc1c(-c2ccccc2)no[n+]1[O-])c1nc(CCl)n(-c2ccccc2)n1 | > 95 | ~20 |  | 
O=C(OCc1c(-c2ccccc2)no[n+]1[O-])c1nc(CCl)n(-c2cccc(C(F)(F)F)c2)n1 | > 95 | ~20 |  | Activity [3]: Non-Toxic
Cc1cccc(-n2nc(C(=O)OCc3c(-c4ccccc4)no[n+]3[O-])nc2CCl)c1 | > 95 | ~20 | 6.1 | 
O=C(OCc1c(-c2ccccc2)no[n+]1[O-])c1nc(CCl)n(-c2ccccc2C(F)(F)F)n1 | > 95 | ~20 | 13.8 | 
O=C(OCc1c(-c2ccccc2)no[n+]1[O-])c1nc(CCl)n(-c2ccc(C(F)(F)F)cc2)n1 | > 95 | ~20 |  | 
COc1ccc2c(c1)c(CC(=O)O)c(C)n2C(=O)c1ccc(Cl)cc1 [INDOMETHACIN] |  |  | 56.8 | inhibition in vivo at 10 mg/kg (Mus musculus [4]): 44%; inhibition in vivo at 10 mg/kg (Mus musculus [5]): 29.8%; Activity (Mus musculus [6]): Active; Activity (Mus musculus [7]): Active; Activity [3]: Toxic
